{"source": "PubChem BioAssay (NCI)", "assay_in_all_cases": "NCI tumour cell line growth inhibition, 48 h", "key": {"[1]": {"tested_on": "SK-OV-3 ovarian"}, "[2]": {"tested_on": "OVCAR-5 ovarian"}, "[3]": {"tested_on": "PC-3 prostate"}, "[4]": {"tested_on": "A498 renal"}, "[5]": {"tested_on": "HS 578T breast"}, "[6]": {"tested_on": "ACHN renal"}, "[7]": {"tested_on": "SK-MEL-5 melanoma"}, "[8]": {"tested_on": "MDA-MB-435"}, "[9]": {"tested_on": "U251 CNS"}, "[10]": {"tested_on": "HL-60(TB) leukemia"}, "[11]": {"tested_on": "HCT-15 colon"}, "[12]": {"tested_on": "M14 melanoma"}, "[13]": {"tested_on": "SK-MEL-28 melanoma"}, "[14]": {"tested_on": "KM12 colon"}, "[15]": {"tested_on": "HCC-2998 colon"}, "[16]": {"tested_on": "K-562 leukemia"}, "[17]": {"tested_on": "OVCAR-8 ovarian"}, "[18]": {"tested_on": "786-0 renal"}, "[19]": {"tested_on": "HOP-62 NSCLC"}, "[20]": {"tested_on": "NCI-H522 lung"}, "[21]": {"tested_on": "SF-539 CNS"}, "[22]": {"tested_on": "MCF7 breast"}, "[23]": {"tested_on": "SNB-19 CNS"}, "[24]": {"tested_on": "HCT-116 colon"}, "[25]": {"tested_on": "MDA-MB-231 breast"}, "[26]": {"tested_on": "OVCAR-4 ovarian"}, "[27]": {"tested_on": "TK-10 renal"}, "[28]": {"tested_on": "CAKI-1 renal"}, "[29]": {"tested_on": "UO-31 renal"}, "[30]": {"tested_on": "SF-295 CNS"}, "[31]": {"tested_on": "NCI-H460 lung"}, "[32]": {"tested_on": "SN12C renal"}, "[33]": {"tested_on": "OVCAR-3 ovarian"}, "[34]": {"tested_on": "UACC-257 melanoma"}, "[35]": {"tested_on": "SK-MEL-2 melanoma"}, "[36]": {"tested_on": "HOP-92 NSCLC"}, "[37]": {"tested_on": "SF-268 CNS"}, "[38]": {"tested_on": "NCI/ADR-RES ovarian"}, "[39]": {"tested_on": "SNB-75 CNS"}, "[40]": {"tested_on": "EKVX NSCLC"}, "[41]": {"tested_on": "T-47D breast"}, "[42]": {"tested_on": "UACC-62 melanoma"}, "[43]": {"tested_on": "DU-145 prostate"}, "[44]": {"tested_on": "NCI-H23 lung"}, "[45]": {"tested_on": "SW-620 colon"}, "[46]": {"tested_on": "MOLT-4 leukemia"}, "[47]": {"tested_on": "LOX IMVI melanoma"}, "[48]": {"tested_on": "HT29 colon"}, "[49]": {"tested_on": "IGROV1 ovarian"}, "[50]": {"tested_on": "A549 NSCLC"}, "[51]": {"tested_on": "COLO 205 colon"}}, "note": "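Grown in 96-well plates, cells were treated for 48 hours with each compound at five concentrations. Insufficient inhibition: endpoint recorded as highest concentration tested. Here, GI50 denotes the concentration required for 50% inhibition of growth. TGI is the concentration that stops growth completely.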", "data": [{"smiles": "O=C(Nc1ccc(Cl)cc1)Nc1ccc(Cl)c(C(F)(F)F)c1", "values": [{"measurement": "GI50", "setting": "[1]", "value": 2.37, "unit": "µM"}, {"measurement": "TGI", "setting": "[1]", "value": 6.8, "unit": "µM"}, {"measurement": "GI50", "setting": "[2]", "value": 4.52, "unit": "µM"}, {"measurement": "TGI", "setting": "[2]", "value": 14.9, "unit": "µM"}, {"measurement": "GI50", "setting": "[3]", "value": 2.35, "unit": "µM"}, {"measurement": "TGI", "setting": "[3]", "value": 10.8, "unit": "µM"}, {"measurement": "GI50", "setting": "[4]", "value": 2.38, "unit": "µM"}, {"measurement": "TGI", "setting": "[4]", "value": 6.26, "unit": "µM"}, {"measurement": "GI50", "setting": "[5]", "value": 2.68, "unit": "µM"}, {"measurement": "TGI", "setting": "[5]", "value": 8.31, "unit": "µM"}, {"measurement": "GI50", "setting": "[6]", "value": 3.04, "unit": "µM"}, {"measurement": "TGI", "setting": "[6]", "value": 12.1, "unit": "µM"}, {"measurement": "GI50", "setting": "[7]", "value": 1.55, "unit": "µM"}, {"measurement": "TGI", "setting": "[7]", "value": 2.99, "unit": "µM"}, {"measurement": "GI50", "setting": "[8]", "value": 2.45, "unit": "µM"}, {"measurement": "TGI", "setting": "[8]", "value": 8.13, "unit": "µM"}, {"measurement": "GI50", "setting": "[9]", "value": 2.8, "unit": "µM"}, {"measurement": "TGI", "setting": "[9]", "value": 11.4, "unit": "µM"}, {"measurement": "GI50", "setting": "[10]", "value": 1.74, "unit": "µM"}, {"measurement": "TGI", "setting": "[10]", "value": 3.91, "unit": "µM"}, {"measurement": "GI50", "setting": "[11]", "value": 2.65, "unit": "µM"}, {"measurement": "TGI", "setting": "[11]", "value": 11.6, "unit": "µM"}, {"measurement": "GI50", "setting": "[12]", "value": 3.59, "unit": "µM"}, {"measurement": "TGI", "setting": "[12]", "value": 12.3, "unit": "µM"}, {"measurement": "GI50", "setting": "[13]", "value": 3.51, "unit": "µM"}, {"measurement": "TGI", "setting": "[13]", "value": 11.9, "unit": "µM"}, {"measurement": "GI50", "setting": "[14]", "value": 2.21, "unit": "µM"}, {"measurement": "TGI", "setting": "[14]", "value": 6.56, "unit": "µM"}, {"measurement": "GI50", "setting": "[15]", "value": 3.12, "unit": "µM"}, {"measurement": "TGI", "setting": "[15]", "value": 8.81, "unit": "µM"}, {"measurement": "GI50", "setting": "[16]", "value": 1.06, "unit": "µM"}, {"measurement": "TGI", "setting": "[16]", "value": 2.95, "unit": "µM"}, {"measurement": "GI50", "setting": "[17]", "value": 4.04, "unit": "µM"}, {"measurement": "TGI", "setting": "[17]", "value": 18.8, "unit": "µM"}, {"measurement": "GI50", "setting": "[18]", "value": 2.75, "unit": "µM"}, {"measurement": "TGI", "setting": "[18]", "value": 10.7, "unit": "µM"}, {"measurement": "GI50", "setting": "[19]", "value": 3, "unit": "µM"}, {"measurement": "TGI", "setting": "[19]", "value": 11.3, "unit": "µM"}, {"measurement": "GI50", "setting": "[20]", "value": 4.05, "unit": "µM"}, {"measurement": "TGI", "setting": "[20]", "value": 29.1, "unit": "µM"}, {"measurement": "GI50", "setting": "[21]", "value": 2.61, "unit": "µM"}, {"measurement": "TGI", "setting": "[21]", "value": 10.1, "unit": "µM"}, {"measurement": "GI50", "setting": "[22]", "value": 2.16, "unit": "µM"}, {"measurement": "TGI", "setting": "[22]", "value": 7.85, "unit": "µM"}, {"measurement": "GI50", "setting": "[23]", "value": 3.21, "unit": "µM"}, {"measurement": "TGI", "setting": "[23]", "value": 12.6, "unit": "µM"}, {"measurement": "GI50", "setting": "[24]", "value": 1.95, "unit": "µM"}, {"measurement": "TGI", "setting": "[24]", "value": 5.33, "unit": "µM"}, {"measurement": "GI50", "setting": "[25]", "value": 1.75, "unit": "µM"}, {"measurement": "TGI", "setting": "[25]", "value": 3.91, "unit": "µM"}, {"measurement": "GI50", "setting": "[26]", "value": 2.33, "unit": "µM"}, {"measurement": "TGI", "setting": "[26]", "value": 11.4, "unit": "µM"}, {"measurement": "GI50", "setting": "[27]", "value": 4.25, "unit": "µM"}, {"measurement": "TGI", "setting": "[27]", "value": 19.2, "unit": "µM"}, {"measurement": "GI50", "setting": "[28]", "value": 2.27, "unit": "µM"}, {"measurement": "TGI", "setting": "[28]", "value": 8.84, "unit": "µM"}, {"measurement": "GI50", "setting": "[29]", "value": 2.54, "unit": "µM"}, {"measurement": "TGI", "setting": "[29]", "value": 10.2, "unit": "µM"}, {"measurement": "GI50", "setting": "[30]", "value": 1.97, "unit": "µM"}, {"measurement": "TGI", "setting": "[30]", "value": 8.87, "unit": "µM"}, {"measurement": "GI50", "setting": "[31]", "value": 1.7, "unit": "µM"}, {"measurement": "TGI", "setting": "[31]", "value": 6.44, "unit": "µM"}, {"measurement": "GI50", "setting": "[32]", "value": 2.29, "unit": "µM"}, {"measurement": "TGI", "setting": "[32]", "value": 10.5, "unit": "µM"}, {"measurement": "GI50", "setting": "[33]", "value": 1.86, "unit": "µM"}, {"measurement": "TGI", "setting": "[33]", "value": 7.76, "unit": "µM"}, {"measurement": "GI50", "setting": "[34]", "value": 3.44, "unit": "µM"}, {"measurement": "TGI", "setting": "[34]", "value": 11.8, "unit": "µM"}, {"measurement": "GI50", "setting": "[35]", "value": 3.25, "unit": "µM"}, {"measurement": "TGI", "setting": "[35]", "value": 10, "unit": "µM"}, {"measurement": "GI50", "setting": "[36]", "value": 1.55, "unit": "µM"}, {"measurement": "TGI", "setting": "[36]", "value": 5.03, "unit": "µM"}, {"measurement": "GI50", "setting": "[37]", "value": 3.54, "unit": "µM"}, {"measurement": "TGI", "setting": "[37]", "value": 12.2, "unit": "µM"}, {"measurement": "GI50", "setting": "[38]", "value": 3.07, "unit": "µM"}, {"measurement": "TGI", "setting": "[38]", "value": 10.5, "unit": "µM"}, {"measurement": "GI50", "setting": "[39]", "value": 1.97, "unit": "µM"}, {"measurement": "TGI", "setting": "[39]", "value": 7.73, "unit": "µM"}, {"measurement": "GI50", "setting": "[40]", "value": 2.48, "unit": "µM"}, {"measurement": "TGI", "setting": "[40]", "value": 11, "unit": "µM"}, {"measurement": "GI50", "setting": "[41]", "value": 1.22, "unit": "µM"}, {"measurement": "TGI", "setting": "[41]", "value": 5.49, "unit": "µM"}, {"measurement": "GI50", "setting": "[42]", "value": 2.71, "unit": "µM"}, {"measurement": "TGI", "setting": "[42]", "value": 14.7, "unit": "µM"}, {"measurement": "GI50", "setting": "[43]", "value": 3.66, "unit": "µM"}, {"measurement": "TGI", "setting": "[43]", "value": 12.4, "unit": "µM"}, {"measurement": "GI50", "setting": "[44]", "value": 2.21, "unit": "µM"}, {"measurement": "TGI", "setting": "[44]", "value": 11, "unit": "µM"}, {"measurement": "GI50", "setting": "[45]", "value": 2.93, "unit": "µM"}, {"measurement": "TGI", "setting": "[45]", "value": 9.66, "unit": "µM"}, {"measurement": "GI50", "setting": "[46]", "value": 1.72, "unit": "µM"}, {"measurement": "TGI", "setting": "[46]", "value": 4.4, "unit": "µM"}, {"measurement": "GI50", "setting": "[47]", "value": 3.31, "unit": "µM"}, {"measurement": "TGI", "setting": "[47]", "value": 11.6, "unit": "µM"}, {"measurement": "GI50", "setting": "[48]", "value": 2.86, "unit": "µM"}, {"measurement": "TGI", "setting": "[48]", "value": 10.7, "unit": "µM"}, {"measurement": "GI50", "setting": "[49]", "value": 4.01, "unit": "µM"}, {"measurement": "TGI", "setting": "[49]", "value": 16.2, "unit": "µM"}, {"measurement": "GI50", "setting": "[50]", "value": 3.39, "unit": "µM"}, {"measurement": "TGI", "setting": "[50]", "value": 15.8, "unit": "µM"}, {"measurement": "GI50", "setting": "[51]", "value": 1.63, "unit": "µM"}, {"measurement": "TGI", "setting": "[51]", "value": 3.01, "unit": "µM"}]}]}
